Assay results: EP0535528A1, “Antibacterial 5-Nitro-1-methyl-imidazolyl-3-terbutyl-2-hydroxy-aryl-carbinols” (EURORESEARCH S.r.L., priority 1991, dated 1993)
Values after ≈ are worked out from the molar mass of the structure shown.

What was measured:
[1] = system: Swiss female albino mice; experiment: Oral and intraperitoneal acute toxicity in mice (LD50, Probits method); type: in vivo; details: mice
Protocol: 20 Swiss female albino mice are used for this test of the average weight of 20 g (±2), coming from Nossan breeding .
Cages: in Makrolon® with saw dust litter, Number of animals per cage: 5 Acclimation period: 1 week Temperature: 22°C (± 2°C) Humidity : 60%, Diet: pellets for mice produced by Nossan firm, Water ad libitum Fast before the treatment: 16 hours
Oral by gastric route and intraperitoneal.
The substances to be studied: EU11100, EU11102, EU11103, EU11104 are treated with 0.5% carboxymethylcellulose in spring water, for the oral administration, whereas the same substances are intraperitoneally administered in the form of a physiological solution .
For each of the above mentioned substances, a mother suspension is prepared having a concentration in the active ingredient of 250 mg/ml for the oral administration, and analogously a mother suspension is prepared for the intraperitoneal administration having a concentration of the desired active principle of 100 mg/ml.
The following doses are used • a) oral route: 5000 mg/kg • b) intraperitoneal route : 2000 mg/kg
If mortality is observed at the above mentioned doses, other doses are administered in order to obtain a dose-response curve.
5 animals are used for every utilized concentration.
After the administration of the above substances the animals are kept under observation for 14 days , during which the mortality and the behaviour is observed.
LD₅₀ is determined on the base of the cumulative mortality observed in the successive 14 days after the administration by using the Probits method.

[2] = system: Helicobapter pylori; experiment: Inhibition halos of the bacterial growth (impregnated disks on agar); type: cell-based; details: for activity against the Helicobapter pylori strains used: 10 strains; for Inhibition halo (mm), Average: average of 10 strains
Protocol: Comparison substance: Metronidazole Solubilization of the substances : All the substances to be studied are dissolved at room temperature in DMSO.
Some commercially available antibiogram disks are so impregnated with the above mentioned compounds that each disk has concentration equal to 10, 1, 0.1, 0.01 µg.
10 strains of Helicobapter pylori are used of recent clinical isolation.
Columbia Blood Agar Base is used, containing 5% of defibrinated horse blood, 2 % of calf serum, 2 vials of Vitox per liter of medium and Vancomicine (10 µg/ml) Trimetoprim lactate(5 µg/ml) and Polimixin B (2.5 U/ml).
0.1 ml of a suspension of the different used strains are uniformly distributed onto Petri plates, containing 20 ml of Columbia Blood Agar base, obtained by taking a sample, by means of a platinum loop, of different colonies from a 48 hours culture, grown in anaerobiosis jars with "Gas Pack", without a catalyst and diluted into a physiological solution.
4 disks per plate, previously impregnated with the substances under examination, are then placed onto the agar layer of each plate.
After 48 hours of anaerobiosis incubation, as above described, the inhibition halos of the bacterial growth, produced by the different activity of the substances inside the agar, are evaluated.

[3] = system: Helicobapter pylori; experiment: Minimal inhibiting concentration (agar dilution); type: cell-based
Protocol: Substances under examination: EU11100, EU11102, EU11103, EU11104. Comparison substance: Metronidazole Solubilization of the substances: All the substances to be studied are dissolved at room temperature in DMSO. […] 10 strains of Helicobapter pylori are used of recent clinical isolation […] The sowing of the bacteria, prepared as described in the preceding test is carried out by means a "multi-point inoculator". After 48 hours incubation under the condition described in the preceding test, the plates are examined and the Minimal Inhibiting Concentration is evaluated, namely that dose corresponding to growth absence.

## Cc1ccc(C(C)(C)C)c(O)c1C(O)c1ncc([N+](=O)[O-])n1C (centres unmarked) [EU11104, 5-nitro-1-methyl-imidazolyl-3-terbutyl-2-hydroxy-6 methyl-phenyl-carbinol]
[1]; intraperitoneal, 2000 mg/kg
  toxicity when intraperitoneally administered: not toxic
[1]; oral, 5000 mg/kg
  toxicity when orally administered: not toxic
[2]; 0.1 µg/disk
  activity against the Helicobapter pylori strains used: active against 4 out of 10 strains
[2]; 1 µg/disk
  activity against the Helicobapter pylori strains used: active against all the Helicobapter pylori used
  Inhibition halo (mm), Average: 24.9 mm
[2]; disk test
  activity against the Helicobapter pylori strains used: active against all the Helicobapter pylori strains used
[2]; 10 µg/disk
  Inhibition halo (mm), Average: 31.5 mm
[2]; strain 1, 0.01 µg/disk
  Inhibition halo (mm) at the concentration (µg/disk): 0 mm
[2]; strain 1, 1 µg/disk
  Inhibition halo (mm) at the concentration (µg/disk): 27 mm
[2]; strain 1, 10 µg/disk
  Inhibition halo (mm) at the concentration (µg/disk): 33 mm
[2]; strain 2, 0.01 µg/disk
  Inhibition halo (mm) at the concentration (µg/disk): 0 mm
[2]; strain 2, 0.1 µg/disk
  Inhibition halo (mm) at the concentration (µg/disk): 0 mm
[2]; strain 2, 1 µg/disk
  Inhibition halo (mm) at the concentration (µg/disk): 22 mm
[2]; strain 2, 10 µg/disk
  Inhibition halo (mm) at the concentration (µg/disk): 30 mm
[2]; strain 3, 0.01 µg/disk
  Inhibition halo (mm) at the concentration (µg/disk): 0 mm
[2]; strain 3, 0.1 µg/disk
  Inhibition halo (mm) at the concentration (µg/disk): 0 mm
[2]; strain 3, 1 µg/disk
  Inhibition halo (mm) at the concentration (µg/disk): 22 mm
[2]; strain 3, 10 µg/disk
  Inhibition halo (mm) at the concentration (µg/disk): 28 mm
[2]; strain 4, 0.01 µg/disk
  Inhibition halo (mm) at the concentration (µg/disk): 0 mm
[2]; strain 4, 1 µg/disk
  Inhibition halo (mm) at the concentration (µg/disk): 30 mm
[2]; strain 4, 10 µg/disk
  Inhibition halo (mm) at the concentration (µg/disk): 36 mm
[2]; strain 5, 0.01 µg/disk
  Inhibition halo (mm) at the concentration (µg/disk): 0 mm
[2]; strain 5, 0.1 µg/disk
  Inhibition halo (mm) at the concentration (µg/disk): 0 mm
[2]; strain 5, 1 µg/disk
  Inhibition halo (mm) at the concentration (µg/disk): 22 mm
[2]; strain 5, 10 µg/disk
  Inhibition halo (mm) at the concentration (µg/disk): 28 mm
[2]; strain 6, 0.01 µg/disk
  Inhibition halo (mm) at the concentration (µg/disk): 0 mm
[2]; strain 6, 0.1 µg/disk
  Inhibition halo (mm) at the concentration (µg/disk): 14 mm
[2]; strain 6, 1 µg/disk
  Inhibition halo (mm) at the concentration (µg/disk): 29 mm
[2]; strain 6, 10 µg/disk
  Inhibition halo (mm) at the concentration (µg/disk): 35 mm
[2]; strain 7, 0.01 µg/disk
  Inhibition halo (mm) at the concentration (µg/disk): 0 mm
[2]; strain 7, 0.1 µg/disk
  Inhibition halo (mm) at the concentration (µg/disk): 0 mm
[2]; strain 7, 1 µg/disk
  Inhibition halo (mm) at the concentration (µg/disk): 22 mm
[2]; strain 7, 10 µg/disk
  Inhibition halo (mm) at the concentration (µg/disk): 26 mm
[2]; strain 8, 0.01 µg/disk
  Inhibition halo (mm) at the concentration (µg/disk): 0 mm
[2]; strain 8, 0.1 µg/disk
  Inhibition halo (mm) at the concentration (µg/disk): 17 mm
[2]; strain 8, 1 µg/disk
  Inhibition halo (mm) at the concentration (µg/disk): 31 mm
[2]; strain 8, 10 µg/disk
  Inhibition halo (mm) at the concentration (µg/disk): 37 mm
[2]; strain 9, 0.01 µg/disk
  Inhibition halo (mm) at the concentration (µg/disk): 0 mm
[2]; strain 9, 0.1 µg/disk
  Inhibition halo (mm) at the concentration (µg/disk): 0 mm
[2]; strain 9, 1 µg/disk
  Inhibition halo (mm) at the concentration (µg/disk): 21 mm
[2]; strain 9, 10 µg/disk
  Inhibition halo (mm) at the concentration (µg/disk): 30 mm
[2]; strain 10, 0.01 µg/disk
  Inhibition halo (mm) at the concentration (µg/disk): 0 mm
[2]; strain 10, 0.1 µg/disk
  Inhibition halo (mm) at the concentration (µg/disk): 0 mm
[2]; strain 10, 1 µg/disk
  Inhibition halo (mm) at the concentration (µg/disk): 23 mm
[2]; strain 10, 10 µg/disk
  Inhibition halo (mm) at the concentration (µg/disk): 32 mm
[3]; 10 strains
  MIC 50%: 0.03 µg/mL (≈ 0.0939 µM)
  MIC 90%: 0.06 µg/mL (≈ 0.188 µM)
  MIC range: 0.015 to 0.016 µg/mL
[3]; in words, compared with Metronidazole
  MIC values: very low MIC values
[3]; strain 1
  M.I.C.: 0.12 µg/mL
[3]; strain 2
  M.I.C.: 0.03 µg/mL
[3]; strain 3
  M.I.C.: 0.06 µg/mL
[3]; strain 4
  M.I.C.: 0.015 µg/mL
[3]; strain 5
  M.I.C.: 0.03 µg/mL
[3]; strain 6
  M.I.C.: 0.03 µg/mL
[3]; strain 7
  M.I.C.: 0.06 µg/mL
[3]; strain 8
  M.I.C.: 0.06 µg/mL
[3]; strain 9
  M.I.C.: 0.06 µg/mL
[3]; strain 10
  M.I.C.: 0.015 µg/mL
